Source: US11787825B2 (priority 2021, dated 2023)
≈ marks a conversion by molar mass, not a printed value. Where two headings read alike, the source gives them in different places.

Columns and labels:
physchem = details: 25 °C, thermodynamic from solid
[1] = fasted state simulated intestinal fluid (FaSSIF), fassif
[2] = fed state simulated intestinal fluid (FeSSIF), fessif
[3] = 0.1N HCL, 1.0% DMSO, 24-hour incubation at ambient temperature, maximum theoretical compound concentration 100 μM
[4] = 1×PBS buffer (pH 7.4), 1.0% DMSO, 24-hour incubation at ambient temperature, maximum theoretical compound concentration 100 μM

solubility (physchem; [1])	solubility (physchem; [2])	pH 2 solubility [3]	pH 7 solubility [4]	pH 7 solubility	SMILES	pH 2 solubility (pH 2)	pH 7 solubility (pH 7.4)
> 2840 µg/mL	454 µg/mL (≈ 359 µM)	3 μM	75 μM	–	CC(C)(C#Cc1ccc(-c2ccc(Cl)c3c(N(C(=O)CCC(CC(=O)O)NC(=O)OCOP(=O)(O)O)S(C)(=O)=O)nn(CC(F)(F)F)c23)c([C@H](Cc2cc(F)cc(F)c2)NC(=O)Cn2nc(C(F)(F)F)c3c2C(F)(F)[C@@H]2C[C@H]32)n1)S(C)(=O)=O (stereo in doubt) [Compound 34, (R)-6-(N-(4-chloro-7-(2-((S)-1-(2-((3bS,4aR)-5,5-difluoro-3-(trifluoromethyl)-3b,4,4a,5-tetrahydro-1H-cyclopropa[3,4]cyclopenta[1,2-c]pyrazol-1-yl)acetamido)-2-(3,5-difluorophenyl)ethyl)-6-(3-methyl-3-(methylsulfonyl)but-1-yn-1-yl)pyridin-3-yl)-1-(2,2,2-trifluoroethyl)-1H-indazol-3-yl)methylsulfonamido)-6-oxo-3-((((phosphonooxy)methoxy)carbonyl)amino)hexanoic acid]	–	–
321 µg/mL (≈ 301 µM)	45 µg/mL (≈ 42.2 µM)	–	–	1/86 μM	CC(C)(C#Cc1ccc(-c2ccc(Cl)c3c(N(C(=O)/C=C/C(=O)O)S(C)(=O)=O)nn(CC(F)(F)F)c23)c([C@H](Cc2cc(F)cc(F)c2)NC(=O)Cn2nc(C(F)(F)F)c3c2C(F)(F)[C@@H]2C[C@H]32)n1)S(C)(=O)=O [Compound 1, (E)-4-(N-(4-chloro-7-(2-((S)-1-(2-((3bS,4aR)-5,5-difluoro-3-(trifluoromethyl)-3b,4,4a,5-tetrahydro-1H-cyclopropa[3,4]cyclopenta[1,2-c]pyrazol-1-yl)acetamido)-2-(3,5-difluorophenyl)ethyl)-6-(3-methyl-3-(methylsulfonyl)but-1-yn-1-yl)pyridin-3-yl)-1-(2,2,2-trifluoroethyl)-1H-indazol-3-yl)methylsulfonamido)-4-oxobut-2-enoic acid]	1/86 μM	–
810 µg/mL (≈ 686 µM)	655 µg/mL (≈ 554 µM)	–	–	1/95 μM	CC(C)(C#Cc1ccc(-c2ccc(Cl)c3c(N(C(=O)/C=C/C(=O)N[C@@H](CC(=O)O)C(=O)O)S(C)(=O)=O)nn(CC(F)(F)F)c23)c([C@H](Cc2cc(F)cc(F)c2)NC(=O)Cn2nc(C(F)(F)F)c3c2C(F)(F)[C@@H]2C[C@H]32)n1)S(C)(=O)=O [Compound 2, ((E)-4-(N-(4-chloro-7-(2-((S)-1-(2-((3bS,4aR)-5,5-difluoro-3-(trifluoromethyl)-3b,4,4a,5-tetrahydro-1H-cyclopropa[3,4]cyclopenta[1,2-c]pyrazolyl)acetamido)-2-(3,5-difluorophenyl)ethyl)-6-(3-methyl-3-(methylsulfonyl)but-1-ynyl)pyridin-3-yl)-1-(2,2,2-trifluoroethyl)-1H-indazol-3-yl)methylsulfonamido)-4-oxobutenoyl)-L-aspartic acid]	1/95 μM	–
–	6 µg/mL (≈ 5.7 µM)	42 μM	1 μM	–	CN(C)CC(=O)N(c1nn(CC(F)(F)F)c2c(-c3ccc(C#CC(C)(C)S(C)(=O)=O)nc3[C@H](Cc3cc(F)cc(F)c3)NC(=O)Cn3nc(C(F)(F)F)c4c3C(F)(F)[C@@H]3C[C@H]43)ccc(Cl)c12)S(C)(=O)=O [Compound 4, N-(4-chloro-7-(2-((S)-1-(2-((3bS,4aR)-5,5-difluoro-3-(trifluoromethyl)-3b,4,4a,5-tetrahydro-1H-cyclopropa[3,4]cyclopenta[1,2-c]pyrazol-1-yl)acetamido)-2-(3,5-difluorophenyl)ethyl)-6-(3-methyl-3-(methylsulfonyl)but-1-yn-1-yl)pyridin-3-yl)-1-(2,2,2-trifluoroethyl)-1H-indazol-3-yl)-2-(dimethylamino)-N-(methylsulfonyl)acetamide]	–	–
21 µg/mL (≈ 18.2 µM)	1 µg/mL (≈ 0.868 µM)	100 μM	9 μM	–	CN(C)CCCC[C@@H](C(=O)N(c1nn(CC(F)(F)F)c2c(-c3ccc(C#CC(C)(C)S(C)(=O)=O)nc3[C@H](Cc3cc(F)cc(F)c3)NC(=O)Cn3nc(C(F)(F)F)c4c3C(F)(F)[C@@H]3C[C@H]43)ccc(Cl)c12)S(C)(=O)=O)N(C)C [Compound 6, (S)—N-(4-chloro-7-(2-((S)-1-(2-((3bS,4aR)-5,5-difluoro-3-(trifluoromethyl)-3b,4,4a,5-tetrahydro-1H-cyclopropa[3,4]cyclopenta[1,2-c]pyrazol-1-yl)acetamido)-2-(3,5-difluorophenyl)ethyl)-6-(3-methyl-3-(methylsulfonyl)but-1-yn-1-yl)pyridin-3-yl)-1-(2,2,2-trifluoroethyl)-1H-indazol-3-yl)-2,6-bis(dimethylamino)-N-(methylsulfonyl)hexanamide]	–	–
0.5 µg/mL (≈ 0.481 µM)	0.4 µg/mL (≈ 0.385 µM)	60 μM	1 μM	–	C[C@H](N)C(=O)N(c1nn(CC(F)(F)F)c2c(-c3ccc(C#CC(C)(C)S(C)(=O)=O)nc3[C@H](Cc3cc(F)cc(F)c3)NC(=O)Cn3nc(C(F)(F)F)c4c3C(F)(F)[C@@H]3C[C@H]43)ccc(Cl)c12)S(C)(=O)=O [Compound 18, (S)-2-amino-N-(4-chloro-7-(2-((S)-1-(2-((3bS,4aR)-5,5-difluoro-3-(trifluoromethyl)-3b,4,4a,5-tetrahydro-1H-cyclopropa[3,4]cyclopenta[1,2-c]pyrazol-1-yl)acetamido)-2-(3,5-difluorophenyl)ethyl)-6-(3-methyl-3-(methylsulfonyl)but-1-yn-1-yl)pyridin-3-yl)-1-(2,2,2-trifluoroethyl)-1H-indazol-3-yl)-N-(methylsulfonyl)propenamide]	–	–
–	–	–	–	–	CC(C)(CC(=O)N(c1nn(CC(F)(F)F)c2c(-c3ccc(C#CC(C)(C)S(C)(=O)=O)nc3[C@H](Cc3cc(F)cc(F)c3)NC(=O)Cn3nc(C(F)(F)F)c4c3C(F)(F)[C@@H]3C[C@H]43)ccc(Cl)c12)S(C)(=O)=O)c1c(CC(=O)O)cccc1OP(=O)(O)O [Compound 70, 2-(2-(4-(N-(4-chloro-7-(2-((S)-1-(2-((3bS,4aR)-5,5-difluoro (trifluoromethyl)-3b,4,4a,5-tetrahydro-1H-cyclopropa[3,4]cyclopenta[1,2-c]pyrazolyl)acetamido)-2-(3,5-difluorophenyl)ethyl)-6-(3-methyl-3-(methylsulfonyl)but-1-ynyl)pyridin-3-yl)-1-(2,2,2-trifluoroethyl)-1H-indazol-3-yl)methylsulfonamido)-2-methyloxobutan-2-yl)-3-(phosphonooxy)phenyl)acetic acid]	7/94 μM	7/94 μM
–	–	–	–	–	CC(C)(CC(=O)N(c1nn(CC(F)(F)F)c2c(-c3ccc(C#CC(C)(C)S(C)(=O)=O)nc3[C@H](Cc3cc(F)cc(F)c3)NC(=O)Cn3nc(C(F)(F)F)c4c3C(F)(F)[C@@H]3C[C@H]43)ccc(Cl)c12)S(C)(=O)=O)c1c(CC(=O)N[C@@H](CC(=O)O)C(=O)O)cccc1OP(=O)(O)O [Compound 71, (2-(2-(4-(N-(4-chloro-7-(2-((S)-1-(2-((3bS,4aR)-5,5-difluoro-3-(trifluoromethyl)-3b,4,4a,5-tetrahydro-1H-cyclopropa[3,4]cyclopenta[1,2-c]pyrazol-1-yl)acetamido)-2-(3,5-difluorophenyl)ethyl)-6-(3-methyl-3-(methylsulfonyl)but-1-yn-1-yl)pyridin-3-yl)-1-(2,2,2-trifluoroethyl)-1H-indazol-3-yl)methylsulfonamido)-2-methyl-4-oxobutan-2-yl)-3-(phosphonooxy)phenyl)acetyl)-L-aspartic acid]	2/88 μM	2/88 μM
